Laboratory results from the supplement of paper PMC11208160.

Assay: recombinant barcode read abundance after kanamycin selection (control-corrected) (log10(CPM+1)); higher = more efficient recombination; sequences stand for … in AGTGCAGAGAAAATCGGCCAGTTTTCTCTGCCTGCAGTCCGCATGCCGT…AGATTTATGCAGCGGACTGCCTTTCTCCCAAAGTGATAAACCGGACAGTATCATGGACCGGTTTTCCCGGTAATCCGTATTTGCAAGGTTGGTTTCACT; site = the 11-nt target
How it was run: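 Each value is log10(CPM+1). It describes recombination efficiency, taken as averaged, control-corrected counts per million of barcodes at recombinant junctions. The pooled E. coli library paired targets with IS621 bridge RNA target-binding loops, was co-electroporated with a donor plasmid, and was plated twice on chloramphenicol/ampicillin LB agar (control) and twice on chloramphenicol/ampicillin/kanamycin containing 0.1 mM IPTG.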
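Note: IS621 recombinase and bridge RNA in Escherichia coli cells.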

Row | Sequence | recombinant barcode read abundance (log10)
1 | CACTGCTCTTGGGTTCTAACCTGTTGCCT (site CACTGATCTAG) | 0.2
2 | CACTGCTCTTGGGTTCTAACCTGTTGCCT (site CACTGCTCTAG) | 1.58
3 | CACTGCTCTTGGGTTCTAACCTGTTGCCT (site CACTGGTCTAG) | 0.151
4 | CACTGCTCTTGGGTTCTAACCTGTTGCCT (site CACTGTTCTAG) | 0.173
5 | CACTGGACTTGGGTTCTAACCTGTTGCCT (site CAATGGACTAG) | 0.155
6 | CACTGGACTTGGGTTCTAACCTGTTGCCT (site CACTGGACTAG) | 1.04
7 | CACTGGACTTGGGTTCTAACCTGTTGCCT (site CAGTGGACTAG) | 0.42
8 | CACTGGACTTGGGTTCTAACCTGTTGCCT (site CATTGGACTAG) | 0.286
9 | CACTTAACTTGGGTTCTAACCTGTTGCCA (site CACTTAACTTG) | 0.0764
10 | CACTTAACTTGGGTTCTAACCTGTTGCCA (site TGACAGTCTCT) | 0.0672
11 | CACTTAACTTGGGTTCTAACCTGTTGCCT (site CACTTAACTAG) | 0.8
12 | CACTTAACTTGGGTTCTAACCTGTTGCCT (site CACTTACCTAG) | 0
13 | CACTTAACTTGGGTTCTAACCTGTTGCCT (site CACTTAGCTAG) | 0.0439
14 | CACTTAACTTGGGTTCTAACCTGTTGCCT (site CACTTATCTAG) | 0
15 | CACTTACCTTGGGTTCTAACCTGTTGCCT (site CACTTAACTAG) | 0.0847
16 | CACTTACCTTGGGTTCTAACCTGTTGCCT (site CACTTACCTAG) | 0.742
17 | CACTTACCTTGGGTTCTAACCTGTTGCCT (site CACTTAGCTAG) | 0.00951
18 | CACTTACCTTGGGTTCTAACCTGTTGCCT (site CACTTATCTAG) | 0.0355
19 | CACTTAGCTTGGGTTCTAACCTGTTGCCT (site CACTTAACTAG) | 0.559
20 | CACTTAGCTTGGGTTCTAACCTGTTGCCT (site CACTTACCTAG) | 0.181
21 | CACTTAGCTTGGGTTCTAACCTGTTGCCT (site CACTTAGCTAG) | 0.269
22 | CACTTAGCTTGGGTTCTAACCTGTTGCCT (site CACTTATCTAG) | 0.0252

Row | Sequence | recombinant barcode read abundance (log10)
23 | CACTTGACTTGGGTTCTAACCTGTTGCCT (site CACTTGACTAG) | 1.2
24 | CACTTGACTTGGGTTCTAACCTGTTGCCT (site CACTTGCCTAG) | 0.213
25 | CACTTGACTTGGGTTCTAACCTGTTGCCT (site CACTTGGCTAG) | 0.137
26 | CACTTGACTTGGGTTCTAACCTGTTGCCT (site CACTTGTCTAG) | 0.0323
27 | CACTTGACTTGGGTTCTAACCTGTTGCTT (site CACTTGACTAA) | 0.331
28 | CACTTGACTTGGGTTCTAACCTGTTGCTT (site CGCTTGTCTAA) | 0.075
29 | CACTTGTCTTGGGTTCTAACCTGTTGCCT (site CACTTGACTAG) | 0.0529
30 | CACTTGTCTTGGGTTCTAACCTGTTGCCT (site CACTTGCCTAG) | 0.0539
31 | CACTTGTCTTGGGTTCTAACCTGTTGCCT (site CACTTGGCTAG) | 0.283
32 | CACTTGTCTTGGGTTCTAACCTGTTGCCT (site CACTTGTCTAG) | 1.7
33 | CAGACGCCTTGGGTTCTAACCTGTTGCAG (site CACACTCCTCT) | 0.039
34 | CAGACGCCTTGGGTTCTAACCTGTTGCAG (site CAGACGCCTCT) | 1.38
35 | CAGACTCCTTGGGTTCTAACCTGTTGCCT (site CAGACTCCTAG) | 0.214
36 | CAGACTCCTTGGGTTCTAACCTGTTGCCT (site TAGACTACTAG) | 0.186
37 | CAGAGCACTTGGGTTCTAACCTGTTGCCT (site AAGAGCACTAG) | 0.107
38 | CAGAGCACTTGGGTTCTAACCTGTTGCCT (site CAGAGCACTAG) | 1.2
39 | CAGAGCACTTGGGTTCTAACCTGTTGCCT (site GAGAGCACTAG) | 0.185
40 | CAGAGCACTTGGGTTCTAACCTGTTGCCT (site TAGAGCACTAG) | 0.138
41 | CAGAGTACTTGGGTTCTAACCTGTTGCCT (site CACAGTGCTAG) | 0.0547
42 | CAGAGTACTTGGGTTCTAACCTGTTGCCT (site CAGAGTACTAG) | 0.216
43 | CAGAGTCCTTGGGTTCTAACCTGTTGCTT (site CAGAGTCCTAA) | 1.59
44 | CAGAGTCCTTGGGTTCTAACCTGTTGCTT (site CATAGTCCTAG) | 0.105

Row | Sequence | recombinant barcode read abundance (log10)
45 | CAGCACCCTTGGGTTCTAACCTGTTGCGG (site CAGCACCCTCC) | 0.515
46 | CAGCACCCTTGGGTTCTAACCTGTTGCGG (site CGGTACCCTCC) | 0.13
47 | CAGCAGCCTTGGGTTCTAACCTGTTGCTT (site CAGCAGCCTAA) | 0.742
48 | CAGCAGCCTTGGGTTCTAACCTGTTGCTT (site TCCGTTACTCG) | 0.0126
49 | CAGCATCCTTGGGTTCTAACCTGTTGCAG (site ATCACGTCTAG) | 0.157
50 | CAGCATCCTTGGGTTCTAACCTGTTGCAG (site CAGCATCCTCT) | 1.11
51 | CAGCGGCCTTGGGTTCTAACCTGTTGCCT (site CAGAGGCCTAG) | 0.191
52 | CAGCGGCCTTGGGTTCTAACCTGTTGCCT (site CAGCGGCCTAG) | 0.288
53 | CAGCGGCCTTGGGTTCTAACCTGTTGCCT (site CAGGGGCCTAG) | 0.121
54 | CAGCGGCCTTGGGTTCTAACCTGTTGCCT (site CAGTGGCCTAG) | 0.718
55 | CAGGACCCTTGGGTTCTAACCTGTTGCCT (site CAAGACCCTAG) | 1.93
56 | CAGGACCCTTGGGTTCTAACCTGTTGCCT (site CACGACCCTAG) | 0.437
57 | CAGGACCCTTGGGTTCTAACCTGTTGCCT (site CAGGACCCTAG) | 2.18
58 | CAGGACCCTTGGGTTCTAACCTGTTGCCT (site CATGACCCTAG) | 0.409
59 | CAGGATGCTTGGGTTCTAACCTGTTGCCT (site CAAGATGCTAG) | 0.731
60 | CAGGATGCTTGGGTTCTAACCTGTTGCCT (site CACGATGCTAG) | 0.0431
61 | CAGGATGCTTGGGTTCTAACCTGTTGCCT (site CAGGATGCTAG) | 1.35
62 | CAGGATGCTTGGGTTCTAACCTGTTGCCT (site CATGATGCTAG) | 0.0284
63 | CAGGCGTCTTGGGTTCTAACCTGTTGCAC (site CAGGCGTCTGT) | 1.12
64 | CAGGCGTCTTGGGTTCTAACCTGTTGCAC (site GAGGGGTCTGT) | 0.142
65 | CAGGGCCCTTGGGTTCTAACCTGTTGCCT (site AAGGGCCCTAG) | 0.329
66 | CAGGGCCCTTGGGTTCTAACCTGTTGCCT (site CAGGGCCCTAG) | 2.14
